≈ marks a conversion by molar mass, not a printed value.
What was measured:
Escherichia coli = assay: Antibacterial activity against Escherichia coli ATCC 25922 after 24 hrs by broth microdilution method; assay type: functional; details: ATCC 25922, 24 h
Salmonella typhimurium = assay: Antibacterial activity against Salmonella typhimurium ATCC 13311 after 24 hrs by broth microdilution method; assay type: functional, Salmonella enterica subsp. enterica serovar Typhimurium; details: Salmonella enterica, ATCC 13311, 24 h
MCF7 [1] = assay: Antiproliferative activity against human MCF7 cells at 30 uM after 72 hrs by MTT assay relative to control; assay type: functional
MCF7 [2] = assay: cells; details: Homo sapiens, MCF7, 72 h
Bacillus cereus = assay: Antibacterial activity against Bacillus cereus ATCC 1178 after 24 hrs by broth microdilution method; assay type: functional; details: ATCC 1178, 24 h
[3] = Antioxidant activity assessed as DPPH radical scavenging activity at 30 uM after 20 mins by spectrophotometric method relative to control; assay type: functional
Staphylococcus aureus = assay: Antibacterial activity against Staphylococcus aureus ATCC 25923 after 24 hrs by broth microdilution method; assay type: functional; details: ATCC 25923, 24 h
NHDF [4] = assay: Antiproliferative activity against NHDF at 30 uM after 72 hrs by MTT assay relative to control; assay type: cell-based; details: human
Acinetobacter baumannii = assay: Antibacterial activity against Acinetobacter baumannii LMG 1025 after 24 hrs by broth microdilution method; assay type: functional; details: LMG 1025, 24 h
[5] = Antioxidant activity assessed as DPPH radical scavenging activity at 30 uM after 60 mins by spectrophotometric method relative to control; assay type: functional
Pseudomonas aeruginosa = assay: Antibacterial activity against Pseudomonas aeruginosa ATCC 27853 after 24 hrs by broth microdilution method; assay type: functional; details: ATCC 27853, 24 h
Klebsiella pneumoniae = assay: Antibacterial activity against Klebsiella pneumoniae ATCC 13883 after 24 hrs by broth microdilution method; assay type: functional; details: ATCC 13883, 24 h
[6] = Antioxidant activity assessed as DPPH radical scavenging activity after 20 mins by spectrophotometric method; assay type: functional
[7] = Antioxidant activity assessed as DPPH radical scavenging activity after 60 mins by spectrophotometric method; assay type: functional
NHDF [8] = assay: Antiproliferative activity against NHDF after 72 hrs by MTT assay; assay type: cell-based; details: Homo sapiens

SMILES | MIC (Escherichia coli) | MIC (Salmonella typhimurium) | Activity (MCF7 [1]) | IC50 (MCF7 [2]) | MIC (Bacillus cereus) | Activity [3] | MIC (Staphylococcus aureus) | Activity (NHDF [4]) | MIC (Acinetobacter baumannii) | Activity [5] | MIC (Pseudomonas aeruginosa) | MIC (Klebsiella pneumoniae) | IC50 [6] | IC50 [7] | IC50 (NHDF [8])
O=C1NC(=S)NC(=O)C1=CNc1ccc([N+](=O)[O-])cc1Cl | > 200 µM | > 200 µM | 32.43% | 13.2 µM | > 200 µM | 0.91% | > 200 µM | 76.01% | > 200 µM | 0.5% | > 200 µM | > 200 µM |  |  | 
CC(NNc1ccccc1)=C1C(=O)N(C)C(=O)N(C)C1=O | > 200 µM | > 200 µM | 57.38% |  | > 200 µM | 77.1% | > 200 µM | 65.56% | 25 µM (≈ 7.21 µg/mL) | 76.7% | > 200 µM | > 200 µM | 22.6 µM | 18.8 µM | 82 µM
CC(NNc1ccccc1)=C1C(=O)NC(=O)NC1=O | > 200 µM | > 200 µM | 40.24% |  | > 200 µM | 77.1% | > 200 µM | 74.87% | 25 µM (≈ 6.51 µg/mL) | 78.1% | > 200 µM | > 200 µM | 23.9 µM | 20.4 µM | 
Nc1ccccc1NC=C1C(=O)NC(=S)NC1=O | > 200 µM | > 200 µM | 64.55% |  | > 200 µM | 6.1% | > 200 µM | 70.13% | > 200 µM | 17.3% | > 200 µM | > 200 µM |  |  | 
NC(S)=NC=C1C(=O)NC(=O)NC1=O | > 200 µM | > 200 µM | 71.09% |  | > 200 µM | 6.73% | > 200 µM | 78.05% | > 200 µM | 16.6% | > 200 µM | > 200 µM |  |  | 
CC(=O)C1C(=O)N(c2ccccc2)C(=S)N(c2ccccc2)C1=O | > 200 µM | > 200 µM | 75.32% |  | > 200 µM | -8.55% | > 200 µM | 89.63% | > 200 µM | -7.43% | > 200 µM | > 200 µM |  |  | 
CN1C(=O)C(=CNc2ccccc2C(=O)O)C(=O)N(C)C1=O | > 200 µM | > 200 µM | 50.34% |  | > 200 µM | 3.37% | > 200 µM | 71.19% | > 200 µM | 1.98% | > 200 µM | > 200 µM |  |  | 
CC(NN)=C1C(=O)NC(=O)NC1=O | > 200 µM | > 200 µM | 98.27% |  | > 200 µM | 11.6% | > 200 µM | 82.68% | > 200 µM | 25.4% | > 200 µM | > 200 µM |  |  | 
O=C1NC(=O)C(=CNc2ccccc2C(=O)O)C(=O)N1 | > 200 µM | > 200 µM | 54.9% |  | > 200 µM | 1.75% | > 200 µM | 84.62% | > 200 µM | 1.98% | > 200 µM | > 200 µM |  |  | 
N#CC(c1ccc(Br)cc1)c1c([O-])[nH]c(=S)[nH]c1=O.[Na+] (stereo not given) | > 200 µM | > 200 µM | 90.08% |  | > 200 µM | -9.22% | > 200 µM | 89.93% | > 200 µM | -8.33% | > 200 µM | > 200 µM |  |  | 
Cc1c(C)c2c(c(C)c1O)CCC(C)(C(=O)O)O2 (stereo not given) [TROLOX] |  |  |  |  |  | 70% |  |  |  | 70.3% |  |  | 33.8 µM | 35.9 µM | 
CC(=O)C1C(=O)N(C)C(=O)N(C)C1=O | > 200 µM | > 200 µM | 84.11% |  | > 200 µM | -9.14% | > 200 µM | 94.14% | > 200 µM | -9.91% | > 200 µM | > 200 µM |  |  | 
O=C1C(=Cc2ccccc2[N+](=O)[O-])C(=O)N(c2ccccc2)C(=S)N1c1ccccc1 | > 200 µM | > 200 µM | 67.93% |  | > 200 µM | 9% | > 200 µM | 77.56% | > 200 µM | 11.3% | > 200 µM | > 200 µM |  |  | 
CN1C(=O)C(=CNC(N)=S)C(=O)N(C)C1=O | > 200 µM | > 200 µM | 59.18% |  | > 200 µM | 20.3% | > 200 µM | 84.63% | > 200 µM | 31.9% | > 200 µM | > 200 µM |  |  | 
O=c1[nH]cc(F)c(=O)[nH]1 [FLUOROURACIL] |  |  | 11.88% | 2.35 µM |  |  |  | 58.31% |  |  |  |  |  |  | 7.38 µM
CC(NNc1ccc([N+](=O)[O-])cc1)=C1C(=O)N(C)C(=O)N(C)C1=O | > 200 µM | > 200 µM | 76.99% |  | > 200 µM | 71.2% | > 200 µM | 77.63% | 12.5 µM (≈ 4.17 µg/mL) | 76% | > 200 µM | > 200 µM | 23.9 µM | 23.8 µM | 

— ChEMBL document CHEMBL4138236, “Trisubstituted barbiturates and thiobarbiturates: Synthesis and biological evaluation as xanthine oxidase inhibitors, antioxidants, antibacterial and anti-proliferative agents” (Eur J Med Chem, 2018)
